Assay [1] deals with Ab4 (mAb35 antibody). Kind of assay: SPR binding to immobilized Ab4. Conditions: mean ± SD (n = 3), read-out: Kd of Ab4 binding (apparent Kd for DCAF).
Assay [2] addresses Ab1 (4G2 antibody). Briefly: SPR binding to immobilized Ab1. Details: species or system mouse. The following applies: BIAcore T200, Ab1 immobilized on CM5 chip, PBS with 0.005% surfactant P20, 30 μl/min, mean ± SD (n = 3), read-out: Kd of Ab1 binding (apparent Kd for DCAF). The protocol:
(§1) Surface plasmon resonance (SPR) experiments were performed using a BIAcore T200 instrument (GE healthcare) equipped with a CM5 sensor chip. Briefly, Ab1, Ab2 or Ab3 were directly immobilized onto a CM5 sensor chip using an EDC/NHS amine coupling kit. A blank channel was used as the negative control. For SPR measurements, all peptides were directly dissolved in running buffer (PBS with 0.005% surfactant P20). The analytes were injected and disassociated with immobilized IgG at a flow rate of 30 μl min^–1. After each binding and dissociation cycle, the surface of a sensor chip was regenerated using 10 mM glycine-HCl buffer (pH 2.0). The sensorgrams were corrected by subtraction of the signal from the negative control flow path and curve-fitted to calculate the reaction rate and constants using Evaluation 1.0 software.

Assay [3] addresses Ab2 (monoclonal antibody raised against pep2). Briefly: SPR binding to immobilized Ab2. Details: species or system mouse. The following applies: BIAcore T200, Ab2 immobilized on CM5 chip, PBS with 0.005% surfactant P20, mean ± SD (n = 3), read-out: Kd of Ab2 binding (apparent Kd for DCAF). The protocol: as §1
For orientation: Surface plasmon resonance follows binding to a sensor surface in real time, without labels.

Assay [4] has as its system Ab2. Kind of assay: ELISA competition assay of Ab2 binding to GST-fused pep2. It counts as biochemical, mouse. The following applies: sandwich ELISA, GST-fused pep2, Ab2 10 nM, OD450. The protocol: A standard sandwich ELISA assay was used for competition experiment. Briefly, 96-well microtiter plates were coated overnight with anti-GST antibody (10 nM) at 4 °C and blocked with 200 μL of 1% BSA in PBS at room temperature for 1 h. Then the artificial antigen (0.5 nM), pep2 coupled with the GST protein, was added to the wells and incubated for 2 h at RT. The plates were washed with PBS/0.05% Tween 20, and Ab2 (10 nM) or Ab2 (10 nM) plus other ligands, antigen, Fc-III or DCAF2 at series concentrations, were added and incubated for 2 h at RT. […] For a C1q binding assay, rat C1q ELISA kit was used following the protocol of the manufacturer. Briefly, incubated 25 ng mL^–1 C1q and series concentrations of Ab4 or DCAF4 with a pre-coated C1q capture antibody for 2 h at RT. Then HRP linked detection antibody was added for 1 h at RT and the TMB substrate was used to measure the concentration of C1q at OD450.

In assay [5] the target is Ab3 (monoclonal antibody raised against pep3). Briefly: SPR binding to immobilized Ab3. Conditions: BIAcore T200, Ab3 immobilized on CM5 chip, PBS with 0.005% surfactant P20, mean ± SD (n = 3), read-out: Kd of Ab3 binding (apparent Kd for DCAF). Details: species or system mouse. The protocol:
as §1

Assay [6] deals with 4G2 antibody (Ab1), ADE-inducible mouse monoclonal IgG (mouse). Briefly: SPR; BIAcore T200; antibody (IgG) immobilised on a CM5 chip by EDC/NHS amine coupling; peptides as analytes in PBS with 0.005% surfactant P20, 30 ul/min; regeneration 10 mM glycine-HCl pH 2.0; apparent Kd for DCAF, bivalent fit gives Kd1 and Kd2.
Assay [7] addresses mAb35 (Ab4), commercial antibody that blocks the acetylcholine receptor. Kind of assay: SPR.

In the case of `CC(C)C[C@@H]1NC(=O)[C@H](Cc2c[nH]cn2)NC(=O)[C@H](Cc2c[nH]c3ccccc23)NC(=O)[C@H](C)NC(=O)[C@@H]2CSSC[C@H](NC(=O)[C@H](Cc3c[nH]c4ccccc34)NC(=O)[C@H](C(C)C)NC(=O)[C@H](CC(C)C)NC(=O)[C@H](CCC(=O)O)NC(=O)CNC1=O)C(=O)N[C@@H]([C@@H](C)O)C(=O)N[C@H](C(=O)O)CSSC[C@H](N)C(=O)N[C@@H](CC(=O)O)C(=O)N2` [Fc-III-4C], the Kd in assay [1] worked out at 13.99 ± 0.03 nM.
On to `CC(C)C[C@@H]1NC(=O)[C@H](Cc2c[nH]cn2)NC(=O)[C@H](Cc2c[nH]c3ccccc23)NC(=O)[C@H](C)NC(=O)[C@@H](NC(=O)[C@@H](N)CC(=O)O)CSSC[C@@H](C(=O)N[C@H](C(=O)O)[C@@H](C)O)NC(=O)[C@H](Cc2c[nH]c3ccccc23)NC(=O)[C@H](C(C)C)NC(=O)[C@H](CC(C)C)NC(=O)[C@H](CCC(=O)O)NC(=O)CNC1=O` [Fc-III], for which the Kd is 239 ± 2 nM in assay [2], 169 ± 18 nM in assay [3] and 134 ± 6 nM in assay [5]. In assay [4], the “inhibition of antigen–antibody (pep2–Ab2) binding” value is reported as “did not inhibit”.
Take Fc-III peptide: the Kd in assay [6] stood at 239 nM.
Molecule Fc-III-4C peptide registered a Kd in assay [7] of 14 nM.

The values above are taken from publication PMC6429600, “Development of a dual-functional conjugate of antigenic peptide and Fc-III mimetics (DCAF) for targeted antibody blocking” (Chemical Science, 2019).
